Tests used:
[1] = biological target: T1, TDO (A172 human glioblastoma cells) (Homo sapiens, UniProt P48775); test: A172 Kynurenine cell based assay; conditions: 500 μM L-tryptophan, 48 hours, kynurenine by Erhlich's reagent
T1 construct: This assay utilised cancer cells which expressed either TDO or IDO; endogenous in cells; host or cells: A172 human glioblastoma cells
Experimental: (§1) Exemplary compounds of the invention were prepared, and tested to determine their effect as TDO and/or IDO inhibitors. Two different assays were employed: 1. a cell-based assay for detecting the effect of test compounds on kynurenine production in two different cancer cell types. This assay utilised cancer cells which expressed either TDO or IDO and as such was used as a means of testing compound activity at these two enzymes in a cell-based context. 2. a TDO and IDO biochemical coupled assay which utilised recombinantly produced and purified TDO and IDO enzymes in combination with the enzyme formamidase. This coupled enzyme system allowed conversion of N-formylkynurenine produced by TDO or IDO activity to kynurenine which was then quantified by fluorescence following addition of Erhlich's Reagent The protocols for these are set out below.
(§2) A172 (human glioblastoma) and SKOV3 (human ovarian adenocarcinoma) cells were seeded in a 96 well plate at 30,000 or 40,000 cells per well respectively in phenol red-free RPMI supplemented with 10% FCS, 2 mM L-glutamine and 500 μM L-tryptophan. IDO expression was induced in the SKOV3 cells by the addition of 500 ng/ml IFN-γ. Cells were incubated at 37° C. with or without the addition of test compound. After 48 hours, the cells were removed by centrifugation and Erhlich's reagent was added to the supernatant. The Erhlich's reagent was incubated for 5 minutes before the absorbance was read at 490 nm.

[2] = biological target: T2, IDO (SKOV3 human ovarian adenocarcinoma cells, IFN-γ induced) (Homo sapiens, UniProt P14902); test: SKOV3 Kynurenine cell based assay; conditions: IDO induced by 500 ng/ml IFN-γ, 500 μM L-tryptophan, 48 hours
T2 construct: IDO expression was induced in the SKOV3 cells by the addition of 500 ng/ml IFN-γ; endogenous in cells; host or cells: SKOV3 human ovarian adenocarcinoma cells, induced with IFN-γ
T2 sequence (P14902 whole entry): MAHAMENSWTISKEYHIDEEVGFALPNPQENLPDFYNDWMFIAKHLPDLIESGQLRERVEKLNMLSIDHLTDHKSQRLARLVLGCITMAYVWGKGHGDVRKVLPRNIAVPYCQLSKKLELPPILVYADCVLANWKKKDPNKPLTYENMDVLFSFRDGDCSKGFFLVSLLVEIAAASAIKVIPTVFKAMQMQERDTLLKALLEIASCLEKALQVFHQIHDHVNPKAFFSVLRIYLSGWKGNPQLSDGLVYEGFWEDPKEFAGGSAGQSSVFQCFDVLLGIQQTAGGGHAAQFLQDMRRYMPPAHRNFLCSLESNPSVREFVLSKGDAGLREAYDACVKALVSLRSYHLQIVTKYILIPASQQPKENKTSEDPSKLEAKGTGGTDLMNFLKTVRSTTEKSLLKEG
Experimental: as §1
as §2, with “supernatant.” for “supernatant. The Erhlich's reagent was incubated for 5 minutes before the absorbance was read at 490 nm.”

T1 sequence (P48775 whole entry): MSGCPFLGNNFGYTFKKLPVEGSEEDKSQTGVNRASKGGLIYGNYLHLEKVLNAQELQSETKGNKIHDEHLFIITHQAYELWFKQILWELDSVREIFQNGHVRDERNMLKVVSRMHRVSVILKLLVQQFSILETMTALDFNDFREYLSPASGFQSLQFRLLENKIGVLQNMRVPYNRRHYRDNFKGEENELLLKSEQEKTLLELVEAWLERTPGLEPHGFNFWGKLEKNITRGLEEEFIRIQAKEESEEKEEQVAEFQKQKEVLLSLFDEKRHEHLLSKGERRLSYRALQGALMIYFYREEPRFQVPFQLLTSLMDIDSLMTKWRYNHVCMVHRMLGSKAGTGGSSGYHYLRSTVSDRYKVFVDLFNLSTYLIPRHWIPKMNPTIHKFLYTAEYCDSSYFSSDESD

Row | Compound | A172 Kynurenine cell based assay pIC50 [1] | SKOV3 Kynurenine cell based assay pIC50 [2]
1 | CS(=O)(=O)N1CCC(c2c[nH]c3c(F)cccc23)CC1 [Compound 194] | + (+ = pIC50 4.00-4.99) | –
2 | CS(=O)(=O)N1CC=C(c2c[nH]c3ccc(C#N)cc23)CC1 [Compound 230] | ++ (++ = pIC50 5.00-5.99) | –
3 | CN(C)S(=O)(=O)N1CCN(c2c[nH]c3ccccc23)CC1 [Compound 297] | ++ (++ = pIC50 5.00-5.99) | –
4 | CC(C)C(=O)N1CCC(c2c[nH]c3cc(F)ccc23)CC1 [Compound 266] | + (+ = pIC50 4.00-4.99) | –
5 | CCNS(=O)(=O)N1CCC(c2c[nH]c3ccccc23)CC1 [Compound 258] | + (+ = pIC50 4.00-4.99) | –
6 | CC(=O)N1CCC(c2c[nH]c3cc(C#N)ccc23)CC1 [Compound 237] | + (+ = pIC50 4.00-4.99) | –
7 | O=S(=O)(c1ccccc1)N1CCC(c2c[nH]c3cc(F)ccc23)CC1 [Compound 300] | ++ (++ = pIC50 5.00-5.99) | –
8 | CC(=O)N1CCC(c2c[nH]c3cc(Cl)c(F)cc23)CC1 [Compound 242] | – | + (+ = pIC50 4.00-4.99)
9 | O=C(NCCO)N1CCC(c2c[nH]c3ccccc23)CC1 [Compound 226] | + (+ = pIC50 4.00-4.99) | –
10 | CS(=O)(=O)N1CCC(C2C(=O)Nc3ccc(C#N)cc32)CC1 (centres unmarked) [Compound 312] | – | + (+ = pIC50 4.00-4.99)
11 | CS(=O)(=O)N1CCC(c2c[nH]c3cc(F)cc(F)c23)CC1 [Compound 216] | + (+ = pIC50 4.00-4.99) | –
12 | CS(=O)(=O)N1CCC(c2c[nH]c3c(Cl)cccc23)CC1 [Compound 235] | – | + (+ = pIC50 4.00-4.99)
13 | O=S(=O)(CC(F)(F)F)N1CCC(c2c[nH]c3cc(F)ccc23)CC1 [Compound 287] | ++ (++ = pIC50 5.00-5.99) | –
14 | CC(=O)N1CCN(c2c[nH]c3ccccc23)CC1C (centres unmarked) [Compound 298] | ++ (++ = pIC50 5.00-5.99) | –
15 | CC(=O)N1CCC(c2c[nH]c3cc(F)ccc23)CC1 [Compound 200] | ++ (++ = pIC50 5.00-5.99) | –
16 | CN(C)CCNC(=O)N1CCC(c2c[nH]c3ccccc23)CC1 [Compound 246] | + (+ = pIC50 4.00-4.99) | –
17 | CC(=O)N1CCN(c2c[nH]c3ccccc23)CC1C#N (centres unmarked) [Compound 313] | + (+ = pIC50 4.00-4.99) | –
18 | Fc1ccc2c(C3CCN(c4nnn[nH]4)CC3)c[nH]c2c1 [Compound 290] | + (+ = pIC50 4.00-4.99) | –
19 | CS(=O)(=O)N1CCN(c2c[nH]c3ccccc23)CC1C#N (centres unmarked) [Compound 314] | ++ (++ = pIC50 5.00-5.99) | –
20 | Cc1ccc2c(C3=CCN(S(C)(=O)=O)CC3)c[nH]c2c1 [Compound 206] | ++ (++ = pIC50 5.00-5.99) | –
21 | Fc1ccc2c(C3CCN(c4ccccc4)CC3)c[nH]c2c1 [Compound 303] | ++ (++ = pIC50 5.00-5.99) | –
22 | CS(=O)(=O)N1CCC(C2C(=O)Nc3ccc(Br)cc32)CC1 (centres unmarked) [Compound 306] | – | ++ (++ = pIC50 5.00-5.99)
23 | Cn1cnc(C(=O)N2CCC(c3c[nH]c4cc(F)ccc34)CC2)c1 [Compound 272] | + (+ = pIC50 4.00-4.99) | –
24 | c1ccc2c(N3CCn4ncnc4C3)c[nH]c2c1 [Compound 315] | + (+ = pIC50 4.00-4.99) | –
25 | CS(=O)(=O)N1CCCN(c2c[nH]c3ccccc23)CC1 [Compound 302] | – | + (+ = pIC50 4.00-4.99)
26 | CS(=O)(=O)N1CCC(c2c[nH]c3cc(OCc4ccccc4)ccc23)CC1 [Compound 222] | – | + (+ = pIC50 4.00-4.99)
27 | CC(=O)N1CCC(c2c[nH]c3cc(F)cc(F)c23)CC1 [Compound 202] | + (+ = pIC50 4.00-4.99) | –
28 | CCN1CC(C(=O)N2CCC(c3c[nH]c4cc(F)ccc34)CC2)CC1=O (centres unmarked) [Compound 268] | + (+ = pIC50 4.00-4.99) | –
29 | CC(C)CN1CC(C(=O)N2CCC(c3c[nH]c4cc(F)ccc34)CC2)CC1=O (centres unmarked) [Compound 275] | + (+ = pIC50 4.00-4.99) | –
